Converted amounts (≈) assume the structure as drawn. Like-named read-outs stand apart in the source and are kept apart here.
How the values were obtained:
HIV-1 RT = target: T1, HIV-1 RT (Human immunodeficiency virus type 1 group M subtype B, UniProt P03366); assay: Anti-HIV-1 RT assay (recombinant enzyme); assay type: biochemical; settings: for inhibition at 200 µg/mL: read-out: Anti-HIV-1 RT % Inhibition at 200 μg/ml
T1 construct: made in house; host or cells: Escherichia coli

[1] = Cytotoxicity in uninfected PHA-stimulated human PBM cells; settings: human
human PBM cells = assay: as above
HIV-1 (strain LAV-1) = assay: microbe, parasite or virus in culture; assay type: cell-based; settings: for EC50: Human immunodeficiency virus 1, PBMC, human PBM cells infected with HIV-1 (strain LAV), read-out: Ant-HIV-1 in PBM cells EC50
[2] = test system: Influenza A (H1N1) Texas/36/91; assay: microbe, parasite or virus in culture; assay type: cell-based, influenza A virus; settings: Influenza A virus, MDCK; Influenza A (H1N1) Texas/36/91; read-out: Neutral Red EC50
Measles Virus [3] = assay: Measles virus neutral red dye uptake in BSC-1 cells; assay type: cell-based; settings: Measles morbillivirus, BSC-1
[4] = test system: Parainfluenza Type 3 Virus; assay: organism not typed; assay type: cell-based; settings: MA104, read-out: Neutral Red EC50
in vitro [5] = settings: human
in vitro [6] = settings: human; remark: listed apart in the source
in vitro [7] = settings: African green monkey, Neutral Red IC50 (cytotoxic)
Hepatitis B Virus (HBV) = assay: Inhibition of HBV replication in 2.2.15 cells, extracellular (virion) HBV DNA; settings: Hepatitis B virus, 216 h;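 note: extracellular virion HBV DNA in culture medium measured by slot blot hybridization with a 32P-labeled HBV probe, quantified against HBV DNA standards, after 9 days of daily dosing, compared with day 0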
Method: Test compounds were added daily for a nine continuous day period; the culture medium was collected and stored for analysis of extracellular (virion) HBV DNA after 0, 3, 6, and 9 days of treatment. The treated cells were lysed 24 hours following day 9 of treatment for the analysis of intracellular HBV genomic forms. The overall levels of HBV DNA (both extracellular and intracellular DNA) and the relative rate of HBV replication (intracellular DNA) were analyzed quantitatively. The analysis was performed using blot hybridization techniques and [^32P]-labeled HBV-specific probes. The HBV DNA levels were measured by comparison to known amounts of HBV DNA standards applied to every nitrocellulose membrane (gel or slot blot). An AMBIS beta scanner, which measures the radioactive decay of the hybridized probes directly from the nitrocellulose membranes, was used for the quantitative analysis. Standard curves, generated by multiple analyses, were used to correlate CPM measurements made by the beta scanner with relative levels of target HBV DNA. The levels of HBV virion DNA released into the culture medium were analyzed by a slot blot hybridization procedure. HBV DNA levels were then compared to those at day 0 to determine the effect of the test compound. A known positive drug was evaluated in parallel with test compounds in each test.
Determination of therapeutic concentrations (EC50 and EC90) and toxicity concentrations (IC50) were determined as previously described (90). Stock solutions of text drugs were prepared in DMSO. Culture medium was changed daily and analyzed for extracellular HBV DNA after nine days of continuous drug exposure. Extracellular HBV DNA was extracted from the culture media and analyzed by a slot blot hydridization technique, using a ^32P-labeled Eco RI HBV DNA fragment, as previously described (91), and quantitated via comparison to HBV standards on a nitrocellulose filter, using an AMBIS beta scanner. Toxicity was determined by measuring inhibition of neutral red dye uptake. […] Effective concentration values for individual agents are the mean of six cultures per concentration point. Toxicity values are the mean of three cultures per concentration point.

Adenovirus Type 5 [8] = assay: microbe, parasite or virus in culture; assay type: cell-based; settings: Human mastadenovirus C, A549, read-out: CPE Inhibition EC50
in vitro [9] = settings: human; remark: listed apart in the source
in vitro [10] = settings: dog, Neutral Red IC50 (cytotoxic)
[11] = test system: Influenza A (H3N2) Beijing/32/92; assay: microbe, parasite or virus in culture; assay type: cell-based, influenza A virus; settings: Influenza A virus, MDCK; Influenza A (H3N2) Beijing/32/92; read-out: CPE Inhibition EC50
HSV-1 = HSV-1 CPE inhibition in HFF cells
VZV = VZV plaque reduction assay in HFF cells
in vitro [12] = settings: dog
HCMV = HCMV CPE inhibition in HFF cells
[13] = Cytotoxicity by neutral red dye uptake, A549 cells; settings: human, A549 cells (toxicity control wells)
[14] = test system: Respiratory Syncytial Virus; assay: microbe, parasite or virus in culture; assay type: cell-based; settings: human respiratory syncytial virus, MA104; read-out: Neutral Red EC50
[15] = test system: Respiratory Syncytial Virus; assay: microbe, parasite or virus in culture; assay type: cell-based; settings: human respiratory syncytial virus, MA104; read-out: CPE Inhibition EC50
[16] = test system: Influenza A (H1N1) Texas/36/91; assay: microbe, parasite or virus in culture; assay type: cell-based, influenza A virus; settings: Influenza A virus, MDCK; Influenza A (H1N1) Texas/36/91; read-out: CPE Inhibition EC50
Measles Virus [17] = assay: microbe, parasite or virus in culture; assay type: cell-based; settings: Measles morbillivirus, BSC-1; Measles Virus; read-out: CPI Inhibition EC50
[18] = Cytotoxicity by neutral red dye uptake, MA-104 cells; settings: African green monkey, MA-104 cells (toxicity control wells), Neutral Red IC50 (cytotoxic), Respiratory Syncytial Virus test
[19] = test system: Madin Darby canine kidney (MDCK) cells; settings: Influenza A (H3N2) test
[20] = test system: Parainfluenza Type 3 Virus; assay: organism not typed; assay type: cell-based; settings: MA104; Parainfluenza Type 3 Virus; read-out: CPI Inhibition EC50
Influenza B Panama/45/90 = assay: microbe, parasite or virus in culture; assay type: cell-based; settings: Influenza B virus, MDCK; Influenza B Panama/45/90; read-out: CPE Inhibition EC50
[21] = test system: Influenza A (H3N2) Beijing/32/92; assay: microbe, parasite or virus in culture; assay type: cell-based, influenza A virus; settings: Influenza A virus, MDCK; Influenza A (H3N2) Beijing/32/92; read-out: Neutral Red EC50
HSV-2 = HSV-2 CPE inhibition in HFF cells
Adenovirus Type 5 [22] = assay: Adenovirus type 5 neutral red dye uptake in A549 cells; assay type: cell-based; settings: Human mastadenovirus C, A549; Adenovirus Type 5; read-out: Neutral Red EC50
[23] = Anti-HIV-1 RT IC50, values in parentheses or in words
[24] = HIV-1 RT IC50 (50% inhibition dose)

Question: Which results are given for `O=C1CC(c2ccc(O)cc2)Oc2c1c(O)cc(O)c2C1C(=O)c2c(O)cc(O)cc2OC1c1ccc(O)cc1` (centres unmarked) [GB-1a(13), GB-1a]?
Answer: IC50 (HIV-1 RT; [23]): 236 µM; IC50 (HIV-1 RT; [24]): 236 µM; inhibition at 200 µg/mL (HIV-1 RT): 86%; IC50 [1]: 88 µM; toxicity against uninfected PHA-stimulated human PBM cells (in words) (human PBM cells): high toxicity; anti-HIV-1 activity in PBM cells (in words) (HIV-1 (strain LAV-1)): good activity; EC50 (HIV-1 (strain LAV-1)): 38 µM; Selective Index (SI) (HIV-1 (strain LAV-1); PBM cells): 2.3

Question: Which results are given for `O=c1cc(-c2ccc(O)c(-c3c(O)cc(O)c4c(=O)cc(-c5ccc(O)cc5)oc34)c2)oc2cc(O)cc(O)c12` [Amentoflavone (1), amentoflavone]?
Answer: EC50 [2]: 5.3 µg/mL (≈ 9.84 µM); EC50 (Measles Virus [3]): < 20 µg/mL; EC50 [4]: ~32 µg/mL (≈ 59.4 µM); IC50 (in vitro [5]): 35 µM; IC50 (HIV-1 RT; [23]): 119 µM; IC50 (HIV-1 RT; [24]): 119 µM; inhibition at 200 µg/mL (HIV-1 RT): 97.3%; CC50 at 14 days (in vitro [6]; HCMV CPE Inhibition CC50): > 100 µg/mL; CC50 at 3 days (in vitro [6]; HSV-1 CPE Inhibition CC50): > 100 µg/mL; CC50 at 3 days (in vitro [6]; HSV-2 CPE Inhibition CC50): > 100 µg/mL; CC50 at 10 days (in vitro [6]; VZV Plaque Reduction CC50): 9.3 µg/mL (≈ 17.3 µM); IC50 (in vitro [7]): ~56 µg/mL (≈ 104 µM); EC50 (Hepatitis B Virus (HBV); read-out: EC50 (50% effective dose), HBV Virion, 2.2.15 cells, extracellular (virion) HBV DNA, 9 days treatment): > 100 µM; EC90 (Hepatitis B Virus (HBV); read-out: EC90 (90% effective dose), HBV Virion, 2.2.15 cells, extracellular (virion) HBV DNA, 9 days treatment): > 100 µM; EC50 (Adenovirus Type 5 [8]): > 100 µg/mL; IC50 (in vitro [9]): 18 µg/mL (≈ 33.4 µM); IC50 (in vitro [10]; Influenza A (H1N1) test): > 100 µg/mL; IC50 (in vitro [10]; Influenza A (H3N2) test): > 100 µg/mL; EC50 [11]: 4.3 µg/mL (≈ 7.99 µM); HSV-1 SI (CC50/EC50) (HSV-1; HFF Cells): >5.6; EC50 (HSV-1; Human alphaherpesvirus 1, HFF, read-out: HSV-1 CPE Inhibition EC50): 17.9 µg/mL (≈ 33.2 µM); VZV SI (CC50/EC50) (VZV; HFF Cells): <2.3; EC50 (VZV; Human alphaherpesvirus 3, HFF, read-out: VZV Plaque Reduction EC50): > 4 µg/mL; IC50 (in vitro [12]; CPE Inhibition IC50 (50% cell inhibitory (cytotoxic) concentration), Influenza A (H1N1) test): 22 µg/mL (≈ 40.9 µM); IC50 (in vitro [12]; CPE Inhibition IC50 (cytotoxic), Influenza A (H3N2) test): > 100 µg/mL; IC50 (in vitro [12]; CPE Inhibition IC50 (cytotoxic), Influenza B test): 100 µg/mL (≈ 186 µM); HCMV SI (CC50/EC50) (HCMV; HFF Cells): >1.9; EC50 (HCMV; Human betaherpesvirus 5, HFF, read-out: HCMV CPE Inhibition EC50): 50.8 µg/mL (≈ 94.3 µM); IC50 [13]: 74 µg/mL (≈ 137 µM); EC50 [14]: ~21 µg/mL (≈ 39 µM); EC50 [15]: ~10 µg/mL (≈ 18.6 µM); EC50 [16]: 3.1 µg/mL (≈ 5.76 µM); EC50 (Measles Virus [17]): < 40 µg/mL; IC50 [18]: ~35 µg/mL (≈ 65 µM); CPE Inhibition IC50 (cytotoxic) [19]: >100 µg/mL; EC50 [20]: > 100 µg/mL; EC50 (Influenza B Panama/45/90): 0.56 µg/mL (≈ 1.04 µM); EC50 (HIV-1 (strain LAV-1)): > 10.9 µM; EC50 [21]: 6.5 µg/mL (≈ 12.1 µM); HSV-2 SI (CC50/EC50) (HSV-2; HFF Cells): >2.1; EC50 (HSV-2; Human alphaherpesvirus 2, HFF, read-out: HSV-2 CPE Inhibition EC50): 48 µg/mL (≈ 89.1 µM); EC50 (Adenovirus Type 5 [22]): > 100 µg/mL
